In the experiment the test system is FLT3 mutant positive AML. As to the kind of experiment: Clinical response to midostaurin plus chemotherapy, Princess Margaret cohort of 54 AML patients. It counts as in vivo, human.
Where [1] appears, read: midostaurin plus chemotherapy, 54 FLT3 mutant-positive AML patients.

With `CO[C@@H]1[C@H](N(C)C(=O)c2ccccc2)C[C@H]2O[C@]1(C)n1c3ccccc3c3c4c(c5c6ccccc6n2c5c31)C(=O)NC4` [midostaurin, N-[(9S,I0R,I IR,I3R)-2,3,I0,I I,I2,I3-hexahydro-I0-methoxy-9-methyl-I-oxo-9,I3-epoxy-IH, 9H-diindolo[1,2,3-gh: 3′,2′,I′-Im]pyrrolo[3,4-j][I, 7]benzodiazonin-I I-yl]-N-methylbenzamide], under setting [1], the “Responses to midostaurin, average” value is listed as 84 weeks and the “Responses to midostaurin, range” value was 0-513 weeks. Moreover, the “patients refractory or relapsed at the time of carrying out the analysis” value (of 54 AML patients treated with midostaurin plus chemotherapy) was determined as 25 patients.

For the origin of these results see patent US20240261259A1 (priority 2021, published 2024).
